In patent US7083969B2, “Serratia marcescens strain” (Korea Research Institute of Bioscience and Biotechnology, priority 1997, dated 2006):

Test: Body weight of injected mice in graft versus host experiment (toxicity)
Type: in vivo
Description: A graft versus host reaction was utilized for the in vivo assay of prodigiosin's immunosuppression. The graft versus host reaction enables an assessment of the immune response of T lymphocytes. On the sixth day after transplantation of the T lymphocytes of BDF1 mice different in histocompatibility antigen, the lymphatic nodes were measured for weight, thereby assessing the immune response of T lymphocyte to the grafted heteroantigens. The prodigiosin was peritoneally injected at a dose of 30–100 mg per kg of body weight for five days while cyclophosphamide, as a positive control, was peritoneally injected at a dose of 100 mg/kg for five days. The body weights of the injected mice were measured to compare the toxicity of prodigiosin with that of cyclophosphamide. […] As for the body weight, it was not changed in the mice injected with prodigiosin at an effective concentration.

SMILES: CCCCCC1=C/C(=C/c2[nH]c(-c3ccc[nH]3)cc2OC)N=C1C [Prodigiosin, prodigiosin]
- Body weight (10 mg/kg peritoneally for five days): 20 g
- Body weight (30 mg/kg peritoneally for five days): 21 g
- body weight change (at an effective concentration): not changed
